Measured values as given in ChEMBL document CHEMBL5230103, “Hydroxamic acid hybrids as the potential anticancer agents: An Overview” (Eur J Med Chem, 2020).
pIC50: −log10 of the molar value.

Legend:
[1] = biological target: Histone deacetylase; experiment: Inhibition of HDAC (unknown origin); assay type: protein assay, Homo sapiens
[2] = tested on: PC-3; experiment: Cytotoxicity against human PC-3 cells assessed as inhibition of cell growth by SRB assay; assay type: functional, cell-based
[3] = tested on: MV4-11; experiment: Cytotoxicity against human MV4-11 cells assessed as inhibition of cell growth by SRB assay; assay type: functional, cell-based
[4] = tested on: MCF7; experiment: Cytotoxicity against human MCF7 cells assessed as inhibition of cell growth by MTT assay; assay type: functional, cell-based
[5] = tested on: PC-3; experiment: Cytotoxicity against human PC-3 cells assessed as inhibition of cell growth by MTT assay; assay type: functional, cell-based
[6] = tested on: SW-620; experiment: Cytotoxicity against human SW620 cells assessed as inhibition of cell growth by MTT assay; assay type: functional, cell-based
[7] = tested on: ASPC1; experiment: Cytotoxicity against human ASPC1 cells assessed as inhibition of cell growth by MTT assay; assay type: functional, cell-based
[8] = tested on: HepG2; experiment: Cytotoxicity against human HepG2 cells assessed as inhibition of cell growth by MTT assay; assay type: functional, cell-based
[9] = tested on: HCT-116; experiment: Cytotoxicity against human HCT-116 cells assessed as inhibition of cell growth by MTT assay; assay type: functional, cell-based
[10] = tested on: A549; experiment: Cytotoxicity against human A549 cells assessed as inhibition of cell growth by MTT assay; assay type: functional, cell-based
[11] = tested on: K562; experiment: Cytotoxicity against human K562 cells assessed as inhibition of cell growth by MTT assay; assay type: functional, cell-based
[12] = tested on: MDA-MB-231; experiment: Cytotoxicity against human MDA-MB-231 cells assessed as inhibition of cell growth by MTT assay; assay type: functional, cell-based
[13] = biological target: Histone deacetylase 2 (Homo sapiens, UniProt Q92769); experiment: Inhibition of HDAC2 (unknown origin)
Histone deacetylase 2, sequence (Q92769 whole entry): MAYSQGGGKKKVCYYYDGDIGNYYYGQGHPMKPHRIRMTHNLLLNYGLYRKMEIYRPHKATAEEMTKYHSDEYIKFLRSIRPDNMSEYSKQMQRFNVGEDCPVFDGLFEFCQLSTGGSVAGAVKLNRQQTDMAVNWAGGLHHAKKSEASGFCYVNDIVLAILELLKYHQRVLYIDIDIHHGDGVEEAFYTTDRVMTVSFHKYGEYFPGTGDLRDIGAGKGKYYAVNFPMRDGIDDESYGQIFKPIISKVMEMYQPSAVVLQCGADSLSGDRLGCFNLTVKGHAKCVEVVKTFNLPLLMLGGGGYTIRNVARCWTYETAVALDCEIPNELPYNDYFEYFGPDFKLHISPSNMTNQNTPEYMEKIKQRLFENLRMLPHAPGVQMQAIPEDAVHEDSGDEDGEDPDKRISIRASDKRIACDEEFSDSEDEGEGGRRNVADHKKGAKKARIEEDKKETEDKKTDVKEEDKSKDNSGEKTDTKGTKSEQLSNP

| Compound | IC50 [1] | pIC50 [2] | pIC50 [3] | pIC50 [4] | further results |
| --- | --- | --- | --- | --- | --- |
| O=C(CCCCCCC(=O)Nc1nnc(-c2ccco2)s1)NO | – | – | – | 6.06 | pIC50 [5]: 6.06; pIC50 [6]: 6.06; pIC50 [7]: 6.06 |
| O=C(Cn1cnc2c(c1=O)C1CCCCC1S2)Nc1ccc(C(=O)NO)cc1 (stereo not given) | – | – | – | 5.31 | pIC50 [8]: 5.31; pIC50 [9]: 5.31 |
| COc1ccc(/C=C/C(=O)c2ccc(OCC(=O)NO)cc2)cc1 | – | – | – | 6.21 | pIC50 [8]: 6.21; pIC50 [9]: 6.21 |
| Cc1ccc(-c2nnc(NC(=O)CCCCCCC(=O)NO)s2)o1 | – | – | – | 6.06 | pIC50 [5]: 6.06; pIC50 [6]: 6.06; pIC50 [7]: 6.06 |
| O=C(CCCCCCn1cnc2c(c1=O)C1CCCCC1S2)NO (stereo not given) | – | – | – | 5.48 | pIC50 [8]: 5.48; pIC50 [9]: 5.48 |
| CC(C)n1cnc2c(-c3cccc(OCC(=O)NO)c3)nc(N3CCOCC3)nc21 | 0.035 µM | 6.80 | 6.80 | – | – |
| O=C(CCCCCCC(=O)Nc1nnc(-c2ccc(Br)o2)s1)NO | – | – | – | 6.06 | pIC50 [5]: 6.06; pIC50 [6]: 6.06; pIC50 [7]: 6.06 |
| O=C(CCCn1cc(CN2C(=O)/C(=N\O)c3cc(F)ccc32)nn1)NO | – | – | – | – | pIC50 [13]: 6.04 |
| O=C(CCCn1cc(CN2C(=O)/C(=N\O)c3cc(Br)ccc32)nn1)NO | – | – | – | – | pIC50 [13]: 6.04 |
| O=C(COc1ccc(C(=O)/C=C/c2ccccc2)cc1)NO | – | – | – | 6.21 | pIC50 [8]: 6.21; pIC50 [9]: 6.21 |
| O=C(COc1ccc(C(=O)/C=C/c2ccc(F)cc2)cc1)NO | – | – | – | 6.21 | pIC50 [8]: 6.21; pIC50 [9]: 6.21 |
| O=C(CCCCCCC(=O)Nc1nnc(-c2cccs2)s1)NO | – | – | – | 6.06 | pIC50 [5]: 6.06; pIC50 [6]: 6.06; pIC50 [7]: 6.06 |
| COc1ccc2c(c1)C1(OCCO1)C(=O)N2CCCCCCC(=O)NO | – | – | – | – | pIC50 [5]: 7.30; pIC50 [13]: 7.52; pIC50 [6]: 7.30; pIC50 [7]: 7.30 |

More lines, main results first:

| IC50 [1] | Compound | pIC50 [2] | pIC50 [3] | pIC50 [4] | further results |
| --- | --- | --- | --- | --- | --- |
| 0.035 µM | CC(C)n1cnc2c(-c3cccc(COCCCCCCC(=O)NO)c3)nc(N3CCOCC3)nc21 | 6.80 | 6.80 | – | – |
| 0.278 µM | CC(C)n1cnc2c(-c3ccc(COCCCCCCC(=O)NO)cc3)nc(N3CCOCC3)nc21 | 6.01 | 6.01 | – | – |
| 0.278 µM | CC(C)n1cnc2c(-c3ccc(COCCCCCCCC(=O)NO)cc3)nc(N3CCOCC3)nc21 | 6.01 | 6.01 | – | – |
| 0.278 µM | CC(C)n1cnc2c(-c3ccc(COCC(=O)NO)cc3)nc(N3CCOCC3)nc21 | 6.01 | 6.01 | – | – |
| 0.035 µM | CC(C)n1cnc2c(-c3cccc(OCCCCCC(=O)NO)c3)nc(N3CCOCC3)nc21 | 6.80 | 6.80 | – | – |
| 0.278 µM | CC(C)n1cnc2c(-c3ccc(OCCCCC(=O)NO)cc3)nc(N3CCOCC3)nc21 | 6.01 | 6.01 | – | – |
| 0.2 µM | O=C(CCC(=O)Nc1nnc(-c2ccc(Cl)cc2)s1)NO | – | – | – | pIC50 [10]: 4.83; pIC50 [11]: 4.83; pIC50 [5]: 4.83; pIC50 [12]: 4.83 |
| 0.278 µM | CC(C)n1cnc2c(-c3ccc(COCCCCC(=O)NO)cc3)nc(N3CCOCC3)nc21 | 6.01 | 6.01 | – | – |
| 0.035 µM | CC(C)n1cnc2c(-c3cccc(COCCCCCC(=O)NO)c3)nc(N3CCOCC3)nc21 | 6.80 | 6.80 | – | – |
| 0.035 µM | CC(C)n1cnc2c(-c3cccc(COCC(=O)NO)c3)nc(N3CCOCC3)nc21 | 6.80 | 6.80 | – | – |
| 0.278 µM | CC(C)n1cnc2c(-c3ccc(COCCCCCC(=O)NO)cc3)nc(N3CCOCC3)nc21 | 6.01 | 6.01 | – | – |
